Measured values published in patent EP0435222A2, “Aminopyridinylmethanols and aminomethylpyridinamines and related compounds, a process for their preparation and their use as medicaments” (HOECHST-ROUSSEL PHARMACEUTICALS INCORPORATED, priority 1989, dated 1991).
Counter-ions that a name gives are not always drawn. Like-named read-outs stand apart in the source and are kept apart here.

Key:
[1] = test system: 2-phenyl-1,4-benzoquinone-induced writhing; experiment: Inhibition of Phenylquinone-Induced Writhing in Mice (PQW); format: in vivo, male CD-1 Charles River mice
Experimental: A 0.125% concentration of phenyl-p-benzoquinone in a 5% aqueous solution of ethyl alcohol is administered to mice (10 mL/kg, ip). This produces a characteristic "writhe" which is defined as an inward rotation of one or more feet with twisting and turning of the trunk, drawing in of the abdominal wall, lordosis, and arching of the back. A total of 28 male CD-1 Charles River mice (18-30 g) are employed for a time-response. Animals receive food and water ad libitum during their stay in the animal quarters prior to testing. Compounds are tested at 20 mg/kg, sc and are prepared with distilled water, and if insoluble one drop of Tween-80, a surfactant is added. Compounds are administered in a dosage volume of 10 mL/kg.
Twenty mice (five per group) are administered the test compound at various pretreat time (e.g., 15,30,45, and 60 min) prior to phenylquinone injection. Control animals (two per group) receive an equal volume of vehicle. After the administration of phenylquinone, the mice are placed separately into 1-L beakers, and 5 min are allowed to elapse. The mice are then observed for a period of 10 min, and the number of writhes is recorded for each animal. The formula for computing percent inhibition is [drawing 20]
The time period with the maximum percent of inhibition is considered the peak time.

[2] = test system: Scopolamine Induced Memory Deficit; experiment: Dark Avoidance Assay (reversal of scopolamine-induced memory deficit); format: in vivo, mice; details: for responders at 0.3 mg/kg: Dose 0.30 mg/kg of body weight; for responders at 0.16 mg/kg: Dose 0.16 mg/kg of body weight
Experimental: In this assay mice are tested for their ability to remember an unpleasant stimulus for a period of 24 hours. A mouse is placed in a chamber that contains a dark compartment: a strong incandescent light drives it to the dark compartment, where an electric shock is administered through metal plates on the floor. The animal is removed from the testing apparatus and tested again, 24 hours later, for the ability to remember the electric shock. If scopolamine, an anticholinergic that is known to cause memory impairment, is administered before an animal's initial exposure to the test chamber, the animal re-enters the dark compartment shortly after being placed in the test chamber 24 hours later. This effect of scopolamine is blocked by an active test compound, resulting in a greater interval before re-entry into the dark compartment. The results for an active compound are expressed as the percent of a group of animals in which the effect of scopolamine is blocked, as manifested by an increased interval between being placed in the test chamber and re-entering the dark compartment.

[3] = biological target: T1, porcine pancreatic PLA₂ (Sus scrofa, UniProt P00592); experiment: In Vitro Phospholipase A₂ Assay (PLA₂); format: biochemical
T1 construct: porcine pancreatic PLA₂ (3.2 units); from tissue; host or cells: porcine pancreas
T1 sequence (P00592 23-146): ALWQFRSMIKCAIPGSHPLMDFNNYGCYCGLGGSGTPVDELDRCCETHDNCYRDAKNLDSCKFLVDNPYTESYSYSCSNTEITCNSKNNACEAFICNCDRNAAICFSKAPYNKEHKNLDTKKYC
Experimental: The ability of a compound to modulate PLA₂ activity (cleavage of ¹⁴C-dipalmitoyl phosphotidylcholine at the 2-position to ¹⁴C-palmitic acid) was quantitated in this assay. The reaction mixture contained Tris buffer (25mM), pH 8.0, calcium chloride (2.0 mM), bovine serum albumin (0.5 mg), dipalmitoyl phosphotidylcholine (8x10⁻⁵M), (¹⁴C-palmitoyl)dipalmitoyl phosphotidylcholine (6x10³ cpm), porcine pancreatic PLA₂ (3.2 units) and the test compound. The reaction was run at 37°C in a shaking incubator. The reaction was quenched and an internal standard was added in order to determine sample recovery. […] See Feyen, J.H.M., et al., Journal of Chromatography 259 (1983), pp. 338-340.

[4] = test system: naja naja (snake venom) phospholipase A₂-induced paw edema; experiment: Phospholipase A₂-induced Paw Edema (PIPE); format: in vivo, male Wistar rats; details: for PIPE* (0.1 M): difference in edema vs. control, 0.1 M test compound injected with PLA₂ (3 units/paw), subplantar, rat hindpaw, two hours post administration
Experimental: The ability of compounds to prevent naja naja (snake venom) phospholipase A₂-induced paw edema in male Wistar rats (100-125 g) was measured. PLA₂ (3 units/paw) alone or with 0.1 M of the test compound was injected in the subplantar region of the rat left hindpaw. Immediately subsequent to the injection and at two hours post administration the paw was immersed in a mercury bath, and paw displacement was measured on a recorder via a transducer (Standard: hydrocortisone ED₅₀=0.46 M). See Giessler, A.J. et al., Agents and Actions, Vol. 10, Trends in Inflammation Research (1981), p. 195.

[5] = test system: ear edema induced by topical application of TPA (phorbol 12-myristate acetate); experiment: TPA-Induced Ear Edema (TPAEE); format: in vivo, Female Swiss Webster mice; details: for TPAEE (10 µg): 10 µg/ear topical, TPA 10µg/ear, ear punch weight after five hours
Experimental: The purpose of this assay was to determine the ability of a topically-applied compound to prevent ear edema induced by topical application of TPA (phorbol 12-myristate acetate). Female Swiss Webster mice topically received TPA (10µg/ear) on the right ear and vehicle on the left ear. The test compound (10 µg/ear) was applied to both ears. After five hours, the animals were sacrificed and an ear punch (4 mm) was taken from each ear. The difference in right and left ear punch weights for each animal was determined to assess activity (Standard: hydrocortisone ED₅₀=47 µg/ear). See Young, J.M. et al., J. Invest. Dermatol., 80 (1983), pp. 48-52.

[6] = test system: mouse ear edema induced by topical application of arachidonic acid; experiment: Arachidonic Acid-Induced Ear Edema (AAEE); format: in vivo, Female Swiss Webster mice
Experimental: The purpose of this assay was to determine the ability of a topically-applied compound to prevent mouse ear edema induced by topical application of arachidonic acid. Female Swiss Webster mice topically received vehicle or test compound (1.0 mg/ear) on both ears (10µl on outer and inner ears). After 30 minutes, the right ear of all groups received arachidonic acid (4 mg/ear) and the left ear received vehicle alone. After an additional 1 hour, the mice were sacrificed and an ear punch (4 mm) was taken from each ear. The difference in right and left ear punch weights for each animal was determined to assess activity (Standard: indomethacin ED₅₀ = 1.5 mg/ear). See Young, J.M. et al., J. Invest. Dermatol., 80, (1983), pp 48-52.

[7] = Mus musculus, sc, 24 h, s.c, read-out: % of Animals with Scopolamine Induced Memory Deficit Reversal
[8] = 0.01 M test compound, porcine pancreatic PLA₂, 37°C, pH 8.0, change vs. control, read-out: PLA2* (0.01 M)

CCCCNCc1cnccc1N.Cl.Cl [3-(Butylamino)methyl-4-pyridinamine dihydrochloride]
PQW (% inhibition of writhing) ([1]; Dose 20 mg/kg, s.c.): 62% | responders at 0.3 mg/kg [2, 7]: 27%

Cl.Cl.Nc1ccncc1CNCc1ccccc1 [3-[(Phenylmethylamino)methyl]-4-pyridinamine dihydrochloride]
inhibition at 10000 µM ([3]; pH 8, read-out: PLA2* (0.01 M)): 79% | PQW (% inhibition of writhing) ([1]; Dose 20 mg/kg, s.c.): 40% | PIPE* (0.1 M) [4]: -51%

CC(NCc1ccccc1)c1cnccc1N (stereo not drawn) [4-Amino-α-methyl-N-(phenylmethyl)-3-pyridinemethanamine]
PIPE* (0.1 M) [4]: -44%

Nc1ccncc1C(=NO)c1ccccc1F [(4-Amino-3-pyridinyl)-(2-fluorophenyl)-methanone oxime]
inhibition at 10000 µM [3, 8]: 32% | TPAEE (10 µg) [5]: -56%

Nc1ccncc1C(N)c1ccccc1 (stereo not drawn) [(4-Amino-3-pyridinyl)benzenemethanamine dihydrochloride]
responders at 0.3 mg/kg [2, 7]: 27% | PIPE* (0.1 M) [4]: -66%

Cl.Cl.Nc1ccncc1C(N)C1CCCCC1 (stereo not drawn) [(4-Amino-3-pyridinyl)cyclohexylmethanamine dihydrochloride]
inhibition at 10000 µM ([3]; pH 8, read-out: PLA2* (0.01 M)): 72% | PIPE* (0.1 M) [4]: -68%

Cl.Nc1ccncc1C(=O)C1CCCCC1 [(4-Amino-3-pyridinyl)cyclohexylmethanone hydrochloride]
inhibition at 10000 µM ([3]; pH 8, read-out: PLA2* (0.01 M)): 82% | TPAEE (10 µg) [5]: -53%

Nc1ccncc1C(=NO)C1CCCCC1 [(4-Amino-3-pyridinyl)cyclohexylmethanone oxime hydrochloride]
inhibition at 10000 µM ([3]; pH 8, read-out: PLA2* (0.01 M)): 99%

CC(NCc1ccccc1)c1cnccc1NC(=O)C(C)(C)C (stereo not drawn) [N-[3-[1-(Phenylmethylamino)ethyl]-4-pyridinyl]-2,2-dimethylpropanamide dihydrochloride]
inhibition at 10000 µM ([3]; pH 8, read-out: PLA2* (0.01 M)): 74%

CNC(=O)Oc1ccc2c(c1)[C@]1(C)CCN(C)[C@@H]1N2C [Physostigmine, reference compound]
% of Animals with Scopolamine Induced Memory Deficit Reversal ([2]; mouse, in vivo, 0.31 mg/kg): 20%

CCC(=O)O[C@](Cc1ccccc1)(c1ccccc1)[C@H](C)CN(C)C [Propoxyphene, reference compound]
PQW (% inhibition of writhing) ([1]; Dose 3.9 mg/kg, s.c. (reference compound)): 50%

C[C@]12CCC(=O)C=C1CC[C@@H]1[C@@H]2[C@@H](O)C[C@@]2(C)[C@H]1CC[C@]2(O)C(=O)CO [hydrocortisone, reference compound]
ED₅₀ ([4]; standard of the PIPE assay): 0.46 M | ED₅₀ ([5]; standard of the TPAEE assay, topical): 47 µg/ear

COc1ccc2c(c1)c(CC(=O)O)c(C)n2C(=O)c1ccc(Cl)cc1 [indomethacin, reference compound]
ED₅₀ ([6]; standard of the AAEE assay, topical): 1.5 mg/ear

Nc1ccncc1C(O)c1ccccc1F (stereo not drawn) [α-(2-Fluorophenyl)-4-amino-3-pyridinylmethanol hydrochloride]
responders at 1 mg/kg ([2]; Mus musculus, sc, 24 h, Dose 1.0 mg/kg of body weight, s.c, read-out: % of Animals with Scopolamine Induced Memory Deficit Reversal): 40% | PIPE* (0.1 M) [4]: -56%

CC(C)(C)C(=O)Nc1ccncc1C(O)C1CCCCC1 (stereo not drawn) [α-Cyclohexyl-4-(2,2-dimethylpropionamido)-3-pyridinylmethanol]
responders at 0.16 mg/kg [2, 7]: 33% | AAEE (1 mg) ([6]; 1.0 mg/ear topical, 30 minutes before arachidonic acid (4 mg/ear), ear punch weight after 1 hour): -52% | TPAEE (10 µg) [5]: -55%

Nc1ccncc1C(O)C1CCCCC1 (stereo not drawn) [α-Cyclohexyl-4-amino-3-pyridinylmethanol hydrochloride]
responders at 0.16 mg/kg [2, 7]: 50%

CC(O)c1cnccc1NC(=O)C(C)(C)C (stereo not drawn) [α-Methyl-4-(2,2-dimethylpropionamido)-3-pyridinylmethanol]
PQW (% inhibition of writhing) ([1]; Dose 20 mg/kg, s.c.): 89%

CC(O)c1cnccc1N (stereo not drawn) [α-Methyl-4-amino-3-pyridinylmethanol hydrochloride]
responders at 1.25 mg/kg ([2]; Mus musculus, sc, 24 h, Dose 1.25 mg/kg of body weight, s.c, read-out: % of Animals with Scopolamine Induced Memory Deficit Reversal): 33%

CC(C)(C)C(=O)Nc1ccncc1C(O)c1ccccc1 (stereo not drawn) [α.Phenyl-4-(2,2-dimethylpropionamido)-3-pyridinylmethanol]
PQW (% inhibition of writhing) ([1]; Dose 20 mg/kg, s.c.): 38% | responders at 0.31 mg/kg ([2]; Mus musculus, sc, 24 h, Dose 0.31 mg/kg of body weight, s.c, read-out: % of Animals with Scopolamine Induced Memory Deficit Reversal): 40%

Nc1ccncc1C(O)c1ccccc1 (stereo not drawn) [α.Phenyl-4-amino-3-pyridinylmethanol hydrochloride]
inhibition at 10000 µM [3, 8]: 87% | responders at 0.63 mg/kg ([2]; Mus musculus, sc, 24 h, Dose 0.63 mg/kg of body weight, s.c, read-out: % of Animals with Scopolamine Induced Memory Deficit Reversal): 27%
